Laboratory results: patent publication US9322034B2, “Compositions and methods for detecting and modulating cell death by a translation regulated gene expression system” (Wayne State University, priority 2007, dated 2016)

Tests used:
Type in all cases: cell-based, human
[1] = system: HEK293 cell pools expressing the fLUC-TRplp-EYFP, fLUC-TRdm-EYFP, pcuLf-TRplp-EYFP or pcuLf-TRdm-EYFP expression cassettes; experiment: Cytotoxicity assay by Western blot, bicistronic TR cassettes; settings: toxic doses
[2] = system: HEK293 cells; experiment: Trypan blue staining of HEK293 cells treated with toxic agents; settings: 5-6.7 micromolar, within 24 hr
[3] = system: HT1080 cells transduced with rBAC-TRdm-EYFP virions; experiment: Cytotoxic event assay using rBAC-TRdm-EYFP gene delivery, fluorescence microscopy; settings: 5 μM
Procedure: HT1080 cells are plated in 6-well trays and allowed to grow until 70-80% confluent. Two sets of HT1080 cells are transduced with rBAC-TRdm-EYFP virions (multiplicity of infection of 10 pfu/cell and 25 pfu/cell) for 24 hr and then treated with medium containing 5 μM calcium ionophore A23187 for 13.5 hr and 23 hr. At this time, untreated and treated cells are processed and examined by fluorescence microscopic analysis as described above.

[4] = system: HEK293 TRplp-fLUC subclone #3 and HEK293 TRdm-fLUC subclone #45; experiment: Microplate reader temporal response, lysed cell luciferase assay; settings: 6.7 micromolar
Procedure: For this example, HEK293 cells expressing the TRplp-EYFP, TRdm-EYFP, TRplp fLUC and TRdm-fLUC expression cassettes are evaluated using a microplate reader. To quantitate the TR translational response, 24,000 cells are plated in a 96-well microtiter plates and allowed to grow for about 40 hr to achieve the proper cell density prior to incubation with a toxic agent. Each well is cultured with complete DMEM medium containing either no toxin or a defined concentration of toxin and incubated at 37 C for specific time periods. At that time, fluorescence or chemiluminescence on a FLUOstar Optima (BMG Labtech) microplate reader is used measure TR-ORF response.
For a lysed cell assay, cells are cultured as above, but in regular flat bottom 96-well trays. After toxin incubation, the 96-well plates are centrifuged as above. The media is removed, replaced with 50 microliters of Cell Lysis Buffer (25 mM Tris-phosphate (pH7.8), 10% glycerol, 1% TritonX-100, 1 mg/ml BSA, 2 mM EGTA and 2 mM DTT) and incubated for 10 min at RT. Cell lysis is verified using a phase contrast microscope, and the lysates transferred to a white bottom 96-well tray. Luminescence is developed by injection of 5 microliters of D-luciferin solution dissolved in Reaction Buffer (25 mM Glycylglycine (pH 7.8), 15 mM MgSO4, 4 mM EDTA, 15 mM Potassium phosphate, 1 mM DTT, 1 mM Coenzyme A, 6.7 mM ATP and 3.35 mM D-luciferin). After 4 sec with shaking, luminescence values were measured using the lens filter at gains of 2000-3000.
Temporal response assays are used to define the timing of TR-regulated translation during incubation in toxic levels of a cytotoxic agent. HEK293 TRplp-fLUC subclone #3 and HEK293 TRdm-fLUC subclone #45 are cultured in 6.7 micromolar calcium ionophore A23187 for various times (0 hr, 1.5 hr, 3 hr, 4.5 hr, 6 hr, 7.5 hr, 9 hr, 10.5 hr, 12 hr and 13.5 hr) and analyzed as described above using a lysed cell luciferase assay (FIG. 11).

[5] = system: HEK293 cells transformed with the CMV-EYFP, TRplp-EYFP or TRdm-EYFP expression cassettes; experiment: Cytotoxicity assay by fluorescent microscopy, EYFP fluorescent cell counts; settings: 5 micromolar
Source text: Fluorescence of single cells, tissues or cell suspensions can be detected and quantitated by several means such as visual inspection under a microscope, automated or semiautomated fluorescence imaging, flow cytometry, fluorescence spectroscopy in a fluorometer or in a microplate reader, using an appropriate filter set. For this example, visual inspection under a microscope (Nikon TE2000-S) was used to validate TR translational regulation in stressed and dying HEK293 cells expressing the TRplp-EYFP, TRdm-EYFP, TRplp-fLUC and TRdm-fLUC mRNAs.
In this study, HEK293 cells transformed with the CMV-EYFP, TRplp-EYFP or TRdm-EYFP expression cassettes are directly visualized following translation of the spontaneously fluorescent EYFP protein. One day prior to toxin addition, 200,000 cells (HEK293, HEK293 CMV-EYFP, HEK293 TRplp-EYFP or HEK293 TRdm-EYFP) are plated into a six-well tray containing a flame sterilized glass slide. […] Slides were fixed for 10 min in 4% paraformaldehyde, washed extensively with 1×PBS and mounted for fluorescence microscopy.
Fluorescent cell counts are performed on the 6 hr and 10 hr timepoints using an EYFP-selective filter set (Nikon) and are shown in FIG. 7. In untreated cell cultures, the frequency of EYFP-positive cells range from 1.5-2.5%, which is consistent with the frequency of nonviable cells in these cultures, as determined by Trypan blue staining. […]

[6] = system: HEK293 cells transduced with rBAC TRplp-EYFP / TRdm-EYFP; experiment: TR-EYFP translation after rBAC transduction; settings: 5 μM, 24 hr
Procedure: This example is to show delivery of the TRplp-EYFP and TRdm-EYFP cassettes to HEK293 cells using rBAC transduction. HEK293 cells are plated on flame sterilized glass slides and grown until 60-70% confluent (1-2 days), washed with serum-free DMEM, and infected with rBAC for 1-2 hr. The medium is replaced with DMEM, 10% FBS and the cells incubated for 24 hours. Infected cells were treated with DMEM, 10% FBS supplemented with 5 μM calcium ionophore A23187 for 24 hr prior to direct microscopic examination.

CNc1ccc2oc(C[C@H]3O[C@@]4(CC[C@H]3C)O[C@H]([C@H](C)C(=O)c3ccc[nH]3)[C@H](C)C[C@H]4C)nc2c1C(=O)O [calcium ionophore A23187]
EYFP translation in cell pools expressing the bicistronic TR cassettes (Western blot, FIG. 4) [1]: induce EYFP translation | cell death in HEK293 cells as determined by Trypan blue staining [2]: complete cell death | increase in EYFP positive cells compared to infected but untreated cell samples ([3]; 13.5 hr, 10 pfu/cell): 3344% | increase in EYFP positive cells compared to infected but untreated cell samples ([3]; 13.5 hr, 25 pfu/cell): 4925% | decrease in the number of attached cells ([3]; 23 hr): more than 50% | increase in EYFP positive cells compared to infected but untreated cell samples ([3]; 23 hr, 10 pfu/cell): 725% | increase in EYFP positive cells compared to infected but untreated cell samples ([3]; 23 hr, 25 pfu/cell): 875% | time up to which translational activity increases linearly, values adjusted to HEK293 CMV-fLUC cells ([4]; ratio to CMV-fLUC): 12 h | time post-incubation by which significant TR-specific translation is detected ([4]; raw luciferase numbers): ≤ 1.5 h | time post-incubation up to which translational activity increases linearly, then plateau ([4]; raw luciferase numbers): 9 h | change in the number of fluorescent cells ([5]; HEK293 or HEK CMV-EYFP cells): no significant change | frequency of fluorescent cells, rise in % of untreated control cultures ([5]; TRplp-EYFP expressing cells, 6 hr and 10 hr): 1000-2300% | translation of EYFP in rBAC transduced cells compared to uninfected control cells [6]: exhibit selective translation of the fluorescent EYFP protein
